Read-outs that look alike come from different tables or passages of the source. Blank lines part the entries; values can stand above or below the compound they belong to.
How the values were obtained:
[1] = in vivo screen designated APCC (blood cholesterol in rats on high fat, high cholesterol diet); conditions: Rattus norvegicus, 16 h, male Sprague-Dawley rats, 30 mg/kg in CMC/Tween at 4 PM, PCC diet (0.5% cholic acid) overnight, sacrificed 8 AM, read-out: % Change (mg/dl)
Method: In one in vivo screen designated APCC, male Sprague-Dawley rats (200 to 225 g) were randomly divided into treatment groups and dosed at 4 PM with either vehicle (CMC/Tween) or suspensions of compounds in vehicle at a dose of 30 mg/kg. The normal chow diet was then replaced with a high fat, high cholesterol diet (designated PCC) containing 0.5% cholic acid. The rats consumed this diet ad libitum during the night and were sacrificed at 8 AM to obtain blood samples for cholesterol analysis using standard procedures. Statistical differences between mean cholesterol values for the same vehicle were determined using analysis of variance followed by Fisher's least significant test.

[2] = target: T1, acyl-CoA: cholesterol acyltransferase (ACAT) (Oryctolagus cuniculus, UniProt G1SFD9); experiment: in vitro ACAT inhibition (radiolabeled cholesterol oleate formed from radiolabeled oleic acid, rabbit intestinal microsomes); format: biochemical
T1 sequence (G1SFD9 1-524): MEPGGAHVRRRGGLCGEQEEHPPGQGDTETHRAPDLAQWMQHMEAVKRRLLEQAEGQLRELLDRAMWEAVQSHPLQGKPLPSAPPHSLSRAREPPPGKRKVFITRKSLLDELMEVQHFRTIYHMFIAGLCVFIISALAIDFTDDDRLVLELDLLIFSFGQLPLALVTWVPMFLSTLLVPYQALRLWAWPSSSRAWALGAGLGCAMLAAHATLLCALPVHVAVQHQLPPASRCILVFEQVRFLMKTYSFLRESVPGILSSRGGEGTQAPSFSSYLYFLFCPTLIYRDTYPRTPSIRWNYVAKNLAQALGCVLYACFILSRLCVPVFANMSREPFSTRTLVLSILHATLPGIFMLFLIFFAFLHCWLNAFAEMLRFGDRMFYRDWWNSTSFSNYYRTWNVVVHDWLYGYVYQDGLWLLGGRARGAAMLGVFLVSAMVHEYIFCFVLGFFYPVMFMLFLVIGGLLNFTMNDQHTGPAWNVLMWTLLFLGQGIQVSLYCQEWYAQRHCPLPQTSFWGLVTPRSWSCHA
Method: The ability of representative compounds of the present invention to inhibit ACAT was measured using an in vitro test more fully described in F. J. Field and R. G. Salone, Biochemica et Biophysica 712:557-570 (1982). The test assesses the ability of a test compound to inhibit the acylation of cholesterol by oleic acid by measuring the amount of radiolabeled cholesterol oleate formed from radiolabeled oleic acid in a tissue preparation containing rabbit intestinal microsomes.

[3] = rabbit intestinal microsomes, acylation of cholesterol by oleic acid, read-out: IC50

SMILES: CCCCCCCCCCCCC(C)OC(=O)NC(=O)Oc1c(C(C)C)cccc1C(C)C (racemic) [Example 3, Iminodicarbonic acid, 2,6-bis(1-methylethyl)phenyl 1-methyltridecyl ester, (±)]
change in vivo at 30 mg/kg [1]: -50%

SMILES: CCCCCC(C)OC(=O)NC(=O)Oc1c(C(C)C)cccc1C(C)C (racemic) [Example 9, Iminodicarbonic acid, 2,6-bis(1-methylethyl)phenyl 1-methylhexyl ester, (± )]
change in vivo at 30 mg/kg [1]: -60%

SMILES: CC(C)c1cccc(C(C)C)c1OC(=O)NC(=O)OC(c1ccccc1)c1ccccc1 [Example 1, Iminodicarbonic acid, 2,6-bis(1-methylethyl)phenyldiphenylmethyl ester]
change in vivo at 30 mg/kg [1]: -13%

SMILES: CCCCCCCCCCCCOC(=O)NC(=O)Oc1c(C(C)C)cccc1C(C)C [Example 2, Iminodicarbonic acid, dodecyl 2,6-bis(1-methylethyl)phenyl ester]
change in vivo at 30 mg/kg [1]: -52%

SMILES: CCCCCCCCCCCCC(C)(C)OC(=O)NC(=O)Oc1c(C(C)C)cccc1C(C)C [Example 4, Iminodicarbonic acid, 2,6-bis(1-methylethyl)phenyl 1,1-dimethyltridecyl ester]
change in vivo at 30 mg/kg [1]: -51%

SMILES: CCCCC(C)(C)OC(=O)NC(=O)Oc1c(C(C)C)cccc1C(C)C [Example 5, Iminodicarbonic acid, 2,6-bis(1-methylethyl)phenyl 1,1-dimethylpentyl ester]
change in vivo at 30 mg/kg [1]: -29%

SMILES: CCCCCCOC(=O)NC(=O)Oc1c(C(C)C)cccc1C(C)C [Example 6, Iminodicarbonic acid, 2,6-bis(1-methylethyl)phenyl hexyl ester]
change in vivo at 30 mg/kg [1]: -38%
IC50 [2, 3]: 0.093 µM

SMILES: CCCCC[C@H](C)OC(=O)NC(=O)Oc1c(C(C)C)cccc1C(C)C [Example 7, Iminodicarbonic acid, 2,6-bis(1-methylethyl)phenyl 1-methylhexyl ester (S)]
change in vivo at 30 mg/kg [1]: -25%

SMILES: CCCCC[C@@H](C)OC(=O)NC(=O)Oc1c(C(C)C)cccc1C(C)C [Example 8, Iminodicarbonic acid, 2,6-bis(1-methylethyl)phenyl 1-methylhexyl ester (R)]
change in vivo at 30 mg/kg [1]: -49%

SMILES: CCCCCCCCCCCCCCCCOC(=O)NC(=O)Oc1c(C(C)C)cccc1C(C)C [Example 10, Iminodicarbonic acid, 2,6-bis(1-methylethyl)phenyl hexadecyl ester]
change in vivo at 30 mg/kg [1]: -70%
IC50 [2, 3]: 0.05 µM

SMILES: CCCCCCCCCCCOC(=O)NC(=O)Oc1c(C(C)C)cccc1C(C)C [Example 11, Iminodicarbonic acid, 2,6-bis(1-methylethyl)phenyl undecyl ester]
change in vivo at 30 mg/kg [1]: -65%

SMILES: CCCCCCCCCCCCCCCCCCOC(=O)NC(=O)Oc1c(C(C)C)cccc1C(C)C [Example 12, Iminodicarbonic acid, 2,6-bis(1-methylethyl)phenyl octadecyl ester]
change in vivo at 30 mg/kg [1]: -34%
IC50 [2, 3]: 1.2 µM

SMILES: CCCCCCCC(C)OC(=O)NC(=O)Oc1c(C(C)C)cccc1C(C)C (stereo not drawn) [Example 13]
change in vivo at 30 mg/kg [1]: -56%

SMILES: CCCCCCCCC(C)OC(=O)NC(=O)Oc1c(C(C)C)cccc1C(C)C (stereo not drawn) [Example 14, Iminodicarbonic acid, 2,6-bis(1-methylethyl)phenyl 1-methylnonyl ester]
change in vivo at 30 mg/kg [1]: -54%

SMILES: CCCCCCCCCCC(C)OC(=O)NC(=O)Oc1c(C(C)C)cccc1C(C)C (stereo not drawn) [Example 15, Iminodicarbonic acid, 2,6-bis(1-methylethyl)phenyl 1-methylundecyl ester]
change in vivo at 30 mg/kg [1]: -66%

SMILES: CCCCCCCCOC(=O)NC(=O)Oc1c(C(C)C)cccc1C(C)C [Example 16, Iminodicarbonic acid, 2,6-bis(1-methylethyl)phenyl octyl ester]
change in vivo at 30 mg/kg [1]: -47%

SMILES: CCCCCCCCCCOC(=O)NC(=O)Oc1c(C(C)C)cccc1C(C)C [Example 17, Iminodicarbonic acid, 2,6-bis(1-methylethyl)phenyl decyl ester]
change in vivo at 30 mg/kg [1]: -43%

SMILES: CCCCCCCCCCCCSC(=O)NC(=O)Oc1c(C(C)C)cccc1C(C)C [Example 18, [(Dodecylthio)carbonyl] -carbamic acid, 2,6-bis(1-methylethyl)phenyl ester]
change in vivo at 30 mg/kg [1]: -63%
IC50 [2, 3]: 0.028 µM

SMILES: CC(C)c1cccc(C(C)C)c1OC(=O)NC(=O)Sc1c(C(C)C)cccc1C(C)C [Example 19, 2,6-Bis[[(1-methylethyl)phenyl]thio]carbamic acid, 2,6-bis(1-methylethyl)phenyl ester]
change in vivo at 30 mg/kg [1]: -20%

SMILES: CCCCCCCCCCSC(=O)NC(=O)Oc1c(C(C)C)cccc1C(C)C [Example 20, [(Decylthio)carbonyl]carbamic acid, 2,6-bis(1-methylethyl)phenyl ester]
change in vivo at 30 mg/kg [1]: -52%

SMILES: CC(C)c1cccc(C(C)C)c1OC(=O)NC(=O)Oc1c(C(C)C)cccc1C(C)C [Example 24, Iminodicarbonic acid, di[2,6-bis(1-methylethyl)phenyl]ester]
change in vivo at 30 mg/kg [1]: -43%

SMILES: COC(=O)C(OC(=O)NC(=O)Oc1c(C(C)C)cccc1C(C)C)c1ccccc1 (stereo not drawn) [Example 25, α-[[[[[2,6-Bis(1-methylethyl)phenoxy]carbonyl]amino]carbonyl]oxy]benzeneacetic acid, methyl ester]
change in vivo at 30 mg/kg [1]: -12%

SMILES: CC(C)c1cccc(C(C)C)c1OC(=O)NC(=O)Oc1cccc2ccccc12 [Example 26, Iminodicarbonic acid, [2,6-bis(1-methylethyl)phenyl](1-naphthalenyl) ester]
change in vivo at 30 mg/kg [1]: -11%
IC50 [2, 3]: 1.2 µM

SMILES: CC(C)c1cccc(C(C)C)c1OC(=O)NC(=O)Oc1ccccc1 [Example 27, Iminodicarbonic acid, 2,6-bis(1-methylethyl)phenyl phenyl ester]
IC50 [2, 3]: 3.7 µM

SMILES: CC(C)c1cccc(C(C)C)c1OC(=O)NC(=O)Sc1ccccc1 [Example 28]
change in vivo at 30 mg/kg [1]: -19%
IC50 [2, 3]: 1.8 µM

SMILES: CCCCCCCCCCCCOC(=O)NC(=O)Oc1c(OC)cc(OC)cc1OC [Example 29, Iminodicarbonic acid, dodecyl 2,4,6-trimethoxyphenyl ester]
IC50 [2, 3]: > 5 µM

SMILES: CCCCCCCCCCCCC(C)OC(=O)NC(=O)Oc1ccc(F)cc1F (stereo not drawn) [Example 30, Iminodicarbonic acid, 2,4-difluorophenyl 1-methyltridecyl ester]
change in vivo at 30 mg/kg [1]: -15%
IC50 [2, 3]: > 5 µM

IC50 [2, 3]: > 1 µM
SMILES: CCCCCCCCCCCCSC(=O)NC(=O)Sc1c(C(C)C)cccc1C(C)C [Example 31, Iminodicarbonodithioic acid, 5-[2,6-bis(1-methylethyl)phenyl] S'-dodecyl ester]
change in vivo at 30 mg/kg [1]: -35%

SMILES: O=C(NC(=O)Oc1c(-c2ccccc2)cccc1-c1ccccc1)Oc1c(-c2ccccc2)cccc1-c1ccccc1 [Example 32, Iminodicarbonic acid, di[1,1'[3',1"-terphenyl]-2-yl]ester]
change in vivo at 30 mg/kg [1]: -36%
IC50 [2, 3]: 10.4 µM

IC50 [2, 3]: 0.23 µM
SMILES: Cc1cccc(C)c1SC(=O)NC(=O)Sc1c(C)cccc1C [Example 33, Iminodicarbonodithioic acid, S,S'-bis[2,6-bis(methyl)phenyl]ester]
change in vivo at 30 mg/kg [1]: -33%

IC50 [2, 3]: > 5 µM
SMILES: CCCCCCCCCCCCOC(=O)NC(=O)Sc1c(C(C)C)cccc1C(C)C [Example 34, [[[2,6-Bis(1-methylethyl)phenyl]thio]carbonyl]carbamic acid, dodecyl ester]

SMILES: CC(C)(C)c1cccc(C(C)(C)C)c1OC(=O)NC(=O)Oc1c(C(C)(C)C)cccc1C(C)(C)C [Example 35, Iminodicarbonic acid bis[2,6-bis(1,1-dimethylethyl)phenyl]ester]
change in vivo at 30 mg/kg [1]: -4%

IC50 [2, 3]: > 5 µM
SMILES: O=C(NC(=O)OC(c1ccccc1)c1ccccc1)OC(c1ccccc1)c1ccccc1 [Example 36, Iminodicarbonic acid, di(diphenylmethyl)ester]

SMILES: CCCCCCCCCCCCC(C)OC(=O)N(C)C(=O)Oc1c(C(C)C)cccc1C(C)C (stereo not drawn) [Example 37, Methyliminodicarbonic, 2,6-bis(1-methylethyl)phenyl 1-methyltridecyl ester]
change in vivo at 30 mg/kg [1]: -8%
IC50 [2]: 0.6 µM

— patent publication US5189058A, “Iminodicarbonic, iminodicarbonodithioic, and thiocarbonylcarbamic acid esters useful as ACAT inhibitors” (Warner-Lambert Company, priority 1991, dated 1993)
